Data from paper PMC10882719 (Frontiers in Neuroscience, 2024).
Where two headings read alike, the source gives them in different places.

What was measured:
Format in all cases: cell-based
168 GPCRs [1] = molecular target: T1, 168 GPCRs (Homo sapiens, UniProt P07550)
T1 construct: host or cells: PathHunter cell lines

168 GPCRs [2] = molecular target: T2, 168 GPCRs (Homo sapiens, UniProt P51685)
T2 construct: host or cells: PathHunter cell lines

168 GPCRs [3] = molecular target: T3, 168 GPCRs (Homo sapiens, UniProt Q9H244); conditions: P2RY12
T3 construct: host or cells: PathHunter cell lines

168 GPCRs [4] = molecular target: T4, 168 GPCRs (Homo sapiens, UniProt P49238)
T4 construct: host or cells: PathHunter cell lines
T4 sequence (P49238 1-355): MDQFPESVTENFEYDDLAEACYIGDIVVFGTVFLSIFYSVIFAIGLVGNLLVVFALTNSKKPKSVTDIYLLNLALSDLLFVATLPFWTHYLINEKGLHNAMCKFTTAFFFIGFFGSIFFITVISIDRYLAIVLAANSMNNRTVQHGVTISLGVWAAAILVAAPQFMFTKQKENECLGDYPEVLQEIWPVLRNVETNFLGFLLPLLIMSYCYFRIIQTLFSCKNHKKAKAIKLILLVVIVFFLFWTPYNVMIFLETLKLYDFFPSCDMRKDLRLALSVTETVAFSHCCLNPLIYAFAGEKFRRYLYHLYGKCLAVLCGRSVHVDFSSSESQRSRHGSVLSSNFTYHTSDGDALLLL

168 GPCRs [5] = molecular target: T5, 168 GPCRs (Homo sapiens, UniProt P21452); conditions: TACR2
T5 construct: host or cells: PathHunter cell lines
T5 sequence (P21452 1-398): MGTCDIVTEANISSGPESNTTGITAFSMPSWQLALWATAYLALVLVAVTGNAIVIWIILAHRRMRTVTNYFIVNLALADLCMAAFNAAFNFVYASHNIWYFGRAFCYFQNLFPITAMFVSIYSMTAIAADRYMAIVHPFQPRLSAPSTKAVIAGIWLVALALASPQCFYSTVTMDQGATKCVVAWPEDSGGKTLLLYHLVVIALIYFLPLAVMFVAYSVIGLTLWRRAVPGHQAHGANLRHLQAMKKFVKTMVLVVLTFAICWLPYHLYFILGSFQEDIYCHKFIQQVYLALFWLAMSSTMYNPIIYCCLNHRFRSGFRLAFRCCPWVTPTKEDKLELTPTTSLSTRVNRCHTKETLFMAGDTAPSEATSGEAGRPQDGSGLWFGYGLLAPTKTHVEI

168 GPCRs [6] = molecular target: T6, 168 GPCRs (Homo sapiens, UniProt Q96LB2)
T6 construct: host or cells: PathHunter cell lines

168 GPCRs [7] = molecular target: T7, 168 GPCRs (Homo sapiens, UniProt Q8TDV5)
T7 construct: host or cells: PathHunter cell lines
T7 sequence (Q8TDV5 1-335): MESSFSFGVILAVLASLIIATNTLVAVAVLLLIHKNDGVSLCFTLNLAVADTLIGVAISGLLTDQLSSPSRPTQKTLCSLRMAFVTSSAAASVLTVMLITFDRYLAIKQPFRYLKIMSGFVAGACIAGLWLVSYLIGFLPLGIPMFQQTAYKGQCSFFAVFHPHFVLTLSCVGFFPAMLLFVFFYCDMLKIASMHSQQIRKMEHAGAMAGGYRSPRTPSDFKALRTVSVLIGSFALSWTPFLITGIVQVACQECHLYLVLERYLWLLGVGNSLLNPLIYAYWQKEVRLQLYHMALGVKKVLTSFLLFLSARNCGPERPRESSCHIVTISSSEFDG

168 GPCRs [8] = molecular target: T8, 168 GPCRs (Homo sapiens, UniProt P21728)
T8 construct: host or cells: PathHunter cell lines

168 GPCRs [9] = molecular target: T9, 168 GPCRs (Homo sapiens, UniProt P41587); conditions: VIPR2
T9 construct: host or cells: PathHunter cell lines
T9 sequence (P41587 24-438): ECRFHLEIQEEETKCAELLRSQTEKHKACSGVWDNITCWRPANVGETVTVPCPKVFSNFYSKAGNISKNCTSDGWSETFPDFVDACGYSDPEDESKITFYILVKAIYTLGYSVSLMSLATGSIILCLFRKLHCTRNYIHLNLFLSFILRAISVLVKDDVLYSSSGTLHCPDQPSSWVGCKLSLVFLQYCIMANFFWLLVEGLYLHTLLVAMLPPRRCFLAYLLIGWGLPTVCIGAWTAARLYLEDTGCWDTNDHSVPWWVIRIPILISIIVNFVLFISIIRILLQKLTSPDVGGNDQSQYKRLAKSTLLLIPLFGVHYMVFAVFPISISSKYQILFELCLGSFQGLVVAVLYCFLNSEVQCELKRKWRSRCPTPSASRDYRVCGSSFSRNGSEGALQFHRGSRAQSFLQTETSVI

T1 sequence (P07550 whole entry): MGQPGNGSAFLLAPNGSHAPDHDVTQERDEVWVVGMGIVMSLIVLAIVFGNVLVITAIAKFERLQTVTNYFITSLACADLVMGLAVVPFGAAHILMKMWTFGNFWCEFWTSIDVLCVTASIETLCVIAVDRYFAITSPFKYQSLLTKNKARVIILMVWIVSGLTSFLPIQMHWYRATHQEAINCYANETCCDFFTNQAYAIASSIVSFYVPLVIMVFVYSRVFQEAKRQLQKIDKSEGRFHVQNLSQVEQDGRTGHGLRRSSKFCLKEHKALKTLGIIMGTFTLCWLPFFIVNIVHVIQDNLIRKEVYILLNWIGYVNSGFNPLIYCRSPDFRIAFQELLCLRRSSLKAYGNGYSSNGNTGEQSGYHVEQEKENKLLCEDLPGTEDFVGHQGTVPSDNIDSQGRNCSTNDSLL
T6 sequence (Q96LB2 whole entry): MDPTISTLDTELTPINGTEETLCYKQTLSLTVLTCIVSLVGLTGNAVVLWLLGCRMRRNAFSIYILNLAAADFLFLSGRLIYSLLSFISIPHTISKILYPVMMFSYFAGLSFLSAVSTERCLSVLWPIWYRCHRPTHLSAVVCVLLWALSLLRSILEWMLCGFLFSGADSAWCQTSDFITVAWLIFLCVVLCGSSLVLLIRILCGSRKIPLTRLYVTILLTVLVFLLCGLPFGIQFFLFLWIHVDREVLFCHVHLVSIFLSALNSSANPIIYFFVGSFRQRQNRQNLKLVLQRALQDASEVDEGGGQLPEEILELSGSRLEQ
T8 sequence (P21728 whole entry): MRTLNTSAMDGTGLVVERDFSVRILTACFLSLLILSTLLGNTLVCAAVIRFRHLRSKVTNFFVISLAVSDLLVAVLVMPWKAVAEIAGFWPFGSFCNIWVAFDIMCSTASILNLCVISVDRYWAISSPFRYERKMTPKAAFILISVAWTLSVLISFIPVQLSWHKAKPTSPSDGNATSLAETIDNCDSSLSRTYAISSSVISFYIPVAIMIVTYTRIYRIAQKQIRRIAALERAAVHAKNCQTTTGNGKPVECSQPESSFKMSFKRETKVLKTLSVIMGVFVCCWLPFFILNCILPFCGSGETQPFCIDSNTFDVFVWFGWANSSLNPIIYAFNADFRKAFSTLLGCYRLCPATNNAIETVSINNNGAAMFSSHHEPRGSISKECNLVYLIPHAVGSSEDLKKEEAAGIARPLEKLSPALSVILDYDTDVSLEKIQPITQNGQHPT
T2 sequence (P51685 whole entry): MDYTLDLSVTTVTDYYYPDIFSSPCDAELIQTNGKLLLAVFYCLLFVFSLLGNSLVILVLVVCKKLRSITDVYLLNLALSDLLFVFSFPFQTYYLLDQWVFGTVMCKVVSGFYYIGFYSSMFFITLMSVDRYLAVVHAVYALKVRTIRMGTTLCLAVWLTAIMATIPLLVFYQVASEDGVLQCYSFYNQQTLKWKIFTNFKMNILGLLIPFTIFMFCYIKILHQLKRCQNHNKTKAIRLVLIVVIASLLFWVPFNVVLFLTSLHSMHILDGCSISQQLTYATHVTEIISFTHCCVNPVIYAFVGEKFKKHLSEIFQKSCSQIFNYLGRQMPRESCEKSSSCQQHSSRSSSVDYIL
T3 sequence (Q9H244 whole entry): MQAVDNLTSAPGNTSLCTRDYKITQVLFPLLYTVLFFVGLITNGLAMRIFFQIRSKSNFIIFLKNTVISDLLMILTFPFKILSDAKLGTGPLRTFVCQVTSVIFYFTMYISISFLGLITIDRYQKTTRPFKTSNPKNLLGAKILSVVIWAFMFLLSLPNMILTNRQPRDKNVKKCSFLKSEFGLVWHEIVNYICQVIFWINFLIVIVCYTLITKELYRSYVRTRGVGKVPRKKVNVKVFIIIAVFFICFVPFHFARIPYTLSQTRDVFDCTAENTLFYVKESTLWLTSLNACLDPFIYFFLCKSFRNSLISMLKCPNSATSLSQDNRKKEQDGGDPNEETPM

Structure (SMILES)	% Agonist Activity (168 GPCRs [1]; ADRB2, 1 uM) [%]	% Antagonist Activity (168 GPCRs [1]; ADRB2, 1 uM) [%]	% Agonist Activity (168 GPCRs [1]; ADRB2, 10 uM) [%]	% Antagonist Activity (168 GPCRs [1]; ADRB2, 10 uM) [%]	% Agonist Activity (168 GPCRs [2]; CCR8, 1 uM) [%]	% Antagonist Activity (168 GPCRs [2]; CCR8, 1 uM) [%]	% Agonist Activity (168 GPCRs [2]; CCR8, 10 uM) [%]	% Antagonist Activity (168 GPCRs [2]; CCR8, 10 uM) [%]	% Agonist Activity (168 GPCRs [3]; Conc 1 uM) [%]	% Antagonist Activity (168 GPCRs [3]; Conc 1 uM) [%]	% Agonist Activity (168 GPCRs [3]; Conc 10 uM) [%]	% Antagonist Activity (168 GPCRs [3]; Conc 10 uM) [%]	% Agonist Activity (168 GPCRs [4]; CX3CR1, 1 uM) [%]	% Antagonist Activity (168 GPCRs [4]; CX3CR1, 1 uM) [%]	% Agonist Activity (168 GPCRs [4]; CX3CR1, 10 uM) [%]	% Antagonist Activity (168 GPCRs [4]; CX3CR1, 10 uM) [%]	% Agonist Activity (168 GPCRs [5]; Conc 1 uM) [%]	% Antagonist Activity (168 GPCRs [5]; Conc 1 uM) [%]	% Agonist Activity (168 GPCRs [5]; Conc 10 uM) [%]	% Antagonist Activity (168 GPCRs [5]; Conc 10 uM) [%]	also measured
CNC(C)C(=O)c1ccc2c(c1)OCO2 (stereo not drawn) [methylone]	0	18.1	-0.2	20.4	-0.2	4.7	-0.6	-0.3	-1.5	-14.8	-2.5	-10.4	0	-0.2	-0.4	-6.1	-1.9	10	-3.3	9.1	% Agonist Activity (168 GPCRs [6]; MRGPRX1, 1 uM): -1.7%; % Antagonist Activity (168 GPCRs [6]; MRGPRX1, 1 uM): -6.5%; % Agonist Activity (168 GPCRs [6]; MRGPRX1, 10 uM): -1.5%; % Antagonist Activity (168 GPCRs [6]; MRGPRX1, 10 uM): -10.2%; % Agonist Activity (168 GPCRs [7]; GPR119, 1 uM): -5.8%; % Antagonist Activity (168 GPCRs [7]; GPR119, 1 uM): 17.1%; % Agonist Activity (168 GPCRs [7]; GPR119, 10 uM): -2.2%; % Antagonist Activity (168 GPCRs [7]; GPR119, 10 uM): -8.8%; % Agonist Activity (168 GPCRs [8]; DRD1, 1 uM): -1.6%; % Antagonist Activity (168 GPCRs [8]; DRD1, 1 uM): 6%; % Agonist Activity (168 GPCRs [8]; DRD1, 10 uM): -1.6%; % Antagonist Activity (168 GPCRs [8]; DRD1, 10 uM): 7.8%; % Agonist Activity (168 GPCRs [9]; Conc 1 uM): -0.4%; % Antagonist Activity (168 GPCRs [9]; Conc 1 uM): -1.5%; % Agonist Activity (168 GPCRs [9]; Conc 10 uM): -0.3%; % Antagonist Activity (168 GPCRs [9]; Conc 10 uM): -2.6%
CNC(C)Cc1ccc2c(c1)OCO2 (stereo not drawn) [MDMA, 3,4-Methylenedioxy methamphetamine, reference compound]	2	31.9	1.5	45.7	-0.2	-3.1	-0.2	4.3	-1.6	8.6	-0.6	5.9	-1.3	6.5	-1.4	3.7	0.1	12.5	-0.1	10.7	% Agonist Activity (168 GPCRs [6]; MRGPRX1, 1 uM): 0.2%; % Antagonist Activity (168 GPCRs [6]; MRGPRX1, 1 uM): 5.1%; % Agonist Activity (168 GPCRs [6]; MRGPRX1, 10 uM): -0.4%; % Antagonist Activity (168 GPCRs [6]; MRGPRX1, 10 uM): 7.6%; % Agonist Activity (168 GPCRs [7]; GPR119, 1 uM): 17.1%; % Antagonist Activity (168 GPCRs [7]; GPR119, 1 uM): 2.7%; % Agonist Activity (168 GPCRs [7]; GPR119, 10 uM): 10.2%; % Antagonist Activity (168 GPCRs [7]; GPR119, 10 uM): 3.8%; % Agonist Activity (168 GPCRs [8]; DRD1, 1 uM): -1%; % Antagonist Activity (168 GPCRs [8]; DRD1, 1 uM): -0.5%; % Agonist Activity (168 GPCRs [8]; DRD1, 10 uM): -0.8%; % Antagonist Activity (168 GPCRs [8]; DRD1, 10 uM): 6%; % Agonist Activity (168 GPCRs [9]; Conc 1 uM): -1.6%; % Antagonist Activity (168 GPCRs [9]; Conc 1 uM): -1.1%; % Agonist Activity (168 GPCRs [9]; Conc 10 uM): -0.7%; % Antagonist Activity (168 GPCRs [9]; Conc 10 uM): 3.1%
